According to patent US8927700B2, “Catalytic domains from lysyl oxidase and LOXL2” (Gilead Biologics, Inc., priority 2009, dated 2015):

Target: T1, catalytic domain of human LOXL2 (Homo sapiens, UniProt Q9Y4K0)
T1 construct: made in house; host or cells: 293F cells (HEK293 subclone), transient transfection; purified from culture supernatant on Ni-Sepharose
Experiment: Amplex Red coupled peroxide assay of lysyl oxidase enzymatic activity (deamination of 1,5-diaminopentane)
Assay type: biochemical
Conditions: 1,5-diaminopentane substrate, 37° C., FIG. 5
Protocol: A polypeptide containing the catalytic domain of human LOXL2 was produced as described in Example 12 above. Enzymatic activity was assessed using a biochemical assay that couples the production of peroxide (liberated by LOXL2 after deamination of 1,5-diaminopentane) to the HRP-catalyzed conversion of Amplex® red to a fluorescent product (resorufin). Palamakumbura et al. (2002) Anal. Biochem. 300:245-251. Reaction plates were obtained from Corning. Amplex® Red reagent was from Invitrogen (Carlsbad, Calif.). Horseradish peroxidase (HRP), 1,5-diaminopentane, and antifoam were from Sigma (St. Louis, Mo.). All other reagents were of the highest quality available.
Enzyme mixture was assembled by adding 10 uL of pooled peak fractions (see Example 12) to 40 uL assay solution (62.5 mM sodium borate pH 8.0, 5 units/mL HRP, 10 ppm antifoam). Substrate solution contained 50 mM sodium borate, 100 uM Amplex® red reagent, 20 mM 1,5-diaminopentane, 10 ppm antifoam. The reaction was started by mixing 50 ul of enzyme mixture with 50 ul of substrate solution. […] Reaction mixtures were incubated, at 37° C., in a Molecular Devices M5 plate reader configured to measure fluorescence (ex=544 nm, em=590 nm) in kinetics mode for 1 hour. Data were recorded as the slope of the fluorescence response to time.

T1 sequence (Q9Y4K0 with tags, fused parts or gaps): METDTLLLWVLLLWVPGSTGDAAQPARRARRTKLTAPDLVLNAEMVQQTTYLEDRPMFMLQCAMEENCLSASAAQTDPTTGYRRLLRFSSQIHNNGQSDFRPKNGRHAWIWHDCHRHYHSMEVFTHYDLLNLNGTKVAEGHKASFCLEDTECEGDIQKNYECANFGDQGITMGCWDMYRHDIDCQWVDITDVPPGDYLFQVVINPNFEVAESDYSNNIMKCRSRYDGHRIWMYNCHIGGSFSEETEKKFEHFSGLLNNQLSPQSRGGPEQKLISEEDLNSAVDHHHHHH

Compound | inhibition of the enzymatic activity of the human LOXL2-derived polypeptide (time course of resorufin production, RFU) (2 mM βAPN in reaction, kinetics mode for 1 hour) | enzymatic activity (time course of resorufin production, relative fluorescent units) (pooled peak fractions of purified polypeptide, 1 hour)
N#CCCN [βAPN, beta-aminoproprionitrile] | inhibited | –
human LOXL2-derived polypeptide: polypeptide containing the catalytic domain of human LOXL2 with myc epitope tag and His6 purification tag, produced in 293F cells | – | measurable enzymatic activity
